# Assay results published in patent US5493007A, “Platelet aggregation inhibitors having high specificity for GPIIBIIIA” (Genentech, Inc., priority 1994, dated 1996).
# Values joined by “and” are separate entries in the source; they are usually repeats but may differ in a detail not shown here. Equal values may be shown once. Where a SMILES comes first, the peptide text is derived from it. Bridges are numbered along the chain shown (N, C = ends). [ ]: non-standard residue; d: D form. The star is where a group is joined. Aad = N[C@@H](CCCC(=O)O)C(=O)O; dOrn = NCCC[C@@H](N)C(=O)O; NH(CH2)4NH2 = NCCCCN*; Ava = NCCCCC(=O)O
# Tests used:
# [1] = system: New Zealand White rabbits; assay: Rabbit cutaneous bleeding time (CBT); conditions: for Rabbit BT Ratio: Example 1, at the % P.A. inhibition given
# Protocol: Unanesthetized male New Zealand White rabbits (2.5-3.5 kg) are placed in a standard rabbit restrainer. Ears are shaved and a 20 G Teflon catheter with flowswitch (Viggo) is placed in the medial artery, flushed with saline and locked with 1 ml of heparinized saline (10 m/ml). A 22 G catheter (Abbott) fitted with an injection cap (Medex) is placed in the marginal vein of the same ear. Saline or a GP IIb IIIa receptor antagonist, at a concentration of 1 to 3 mg/ml, is infused via the venous catheter. At time 0, 41% of the dose is given as a bolus over 2 minutes. The remainder is continuously infused over the following 60 minutes. Blood samples (3.2 ml) are collected into syringes without needles via the arterial catheter at -10, -5, 10, 45, and 60 minutes. The first 0.5 ml is discarded and the following 2.7 ml is collected directly into a syringe containing 0.3 ml of 3.8% sodium citrate. The sample is divided into 1.5 ml aliquots and centrifuged at room temperature for 5 seconds at 12,000 G. The resulting platelet rich plasma (PRP) is used to measure ex-vivo platelet aggregation (XPA). At -10 and 60 minutes an additional 1 cml sample is drawn for an automated blood count (Baker instruments). Catheters are flushed and locked after every sample.
# CBT is measured at -10, -5, 10, and 45 minutes on the opposite ear, using an automated incision-making instrument (Surgicutt®, ITD). An incision (5mm×1 mm deep) is made on the dorsal surface of the ear at sites not supplied by major blood vessels. Blood is blotted away with absorbent paper placed near the incision site, every 2 to 15 seconds, to a maximum of 15 minutes. Cessation of bleeding is defined as no blood forming at the incision site for 15 seconds. The range of duplicate CBT in 40 normal rabbits was 0.88 to 3.38 minutes.
# GP IIb IIIa = GP IIb IIIa (Homo sapiens, UniProt P05106+P08514); assay: Fibrinogen-GP IIb IIIa Receptor ELISA Binding Assay; design: from tissue; host or cells: outdated human platelets; conditions: purified human platelet GP IIb IIIa, fibrinogen-coated plates; read-out: ELISA IC50 Fibrinogen GPIIb IIIa
# Protocol: The method used is essentially that described in Nachman and Leung (J. Clin. Invest., 69:263-269 [1982]). The GP IIb IIIa is essentially purified as described in Fitzgerald et al., (Anal. Biochem. 151:169-177 [1985]).
# Outdated human platelets are washed 3 times with 10 mM tris-HCl, 150 mM NaCl (TBS), 1 mM EDTA, pH 7.5, and centrifuged at 2000×g to pellet cells. Cells are lysed in 5 pellet volumes of TBS, 1% Triton X-100, 1 mM Ca2 Cl2, and followed by centrifugation at 30,000×g. The supernatant fraction is collected and the supernatant is loaded onto a concanavalin-A column, previously equilibrated in TBS, 1 mM Ca2 Cl2, 0.1% Triton, 0.05% NaN3 and eluted with 0.2M α-methylmannoside. Fractions are pooled and loaded onto a heparin-agarose column. The flowthrough is collected and concentration on an Amicon YM 30 filter to a volume of approximately 5-10 mi. The concentrate is then applied to an S-300 column (500 ml) and 6 ml fractions are collected. The GP IIb IlIa containing fractions are collected, pooled, and stored at -80° C.
# The purification of fibrinogen is conducted essentially as described by Lipinska et al., (J. Lab. Clin. Med. 507, [1974]). Briefly, a 0.3% w/v solution of human fibrinogen (Kabi #5302) is dissolved in 150 mM NaCl. Saturated (NH4)2 SO4 is added dropwise with stirring to the fibrinogen solution to obtain about 16% saturation. The precipitate is spun down in appropriate size bottles at 2000×g. The supernatant is decanted and the precipitate resuspended in 150 mM NaCl (approximately 50% of the original volume). NH4 SO4 is again added dropwise to obtain 16% saturation. The suspension is spun down and the precipitate is resuspended in Tris-saline in a minimal volume (approximately 5% of the original volume). Any remaining insoluble material is spun down at 2000 rpm in a Sorval type centrifuge and the fibrinogen supernatant is decanted and dialyzed overnight at 4° C. against Tris-saline. Characterization of the fibrinogen is by the Bradford protein assay, SDS-PAGE, and/or Western blotting using well known standard procedures.
# Briefly, 96 well plates are coated (Type Nunc 1 Maxisorp™) with 10 μg/ml purified fibrinogen (100 μl/well), and allowed to stand overnight at 4° C. The plates are washed three times with PBS Tween (0.137M NaCl, 0.003M KCl, 0.008M Na2 HPO4, 0.001M KH2 PO4, pH 7.4 at room temperature, 0.05% Tween-20) and blocked for 1 to 2 hours at room temperature with 200 μl/well TNCNT (which is 0.5% BSA, 20mM Tris, pH 7.5 at room temperature, 120 mM NaCl, 0.2% NAN3, 2mM CaCl2, 0.05% Tween 20, 0.5% BSA [Calbiochem RIA grade or better]) on a plate shaker. The plates are again washed three times with PBS/Tween and then 50 μl of sample in TNCNT is added. The mixture is incubated for 15 minutes at room temperature on a plate shaker. The stock solution of purified GP IIb IIIa receptor from human platelets, (0.4-1.0 mg/ml GP IIb IIIa in 0.1% Triton X-100, 1 mM CaCl2, 20 mM Tris, 150 mM NaCl, 0.05% NaN3 in 0.3M N-acetyl glucosamine pH 7.5, stored at -70° C.), is reconstituted to about 40 μg/ml in TNCNT. Fifty μl of this diluted GP IIb IIIa is then added to each well and incubated on a plate shaker at room temperature. After one hour, the plates are washed four times with PBS/Tween and 100 μl of a polyclonal or monoclonal antibody specific for GP IIIa such as AP3 (1 μg/ml) (See e.g. Newman et al., Blood, 65:227-232 [1985]) in ELISA buffer (PBS, 0.5% BSA, 0.05% Tween 20, 0.01% Thimerasol) is added. After a one hour incubation at room temperature on a plate shaker, the samples are washed 4 times with PBS/Tween. One hundred μl of GAM-HRP (horse radish peroxidase conjugate of goat anti-mouse IgG [Pel-Freeze Cat. 715305-1] dissolved in ELISA buffer) previously diluted to 1:10,000 is then added and the samples are incubated 1 hour at room temperature on a plate shaker. […]
# Fibronectin Receptor = Fibronectin Receptor (Homo sapiens, UniProt P05556+P08648); assay: Human Fibronectin-Fibronectin Receptor ELISA Assay; type: binding; design: octylglucoside (OG) extracted human placenta; from tissue; host or cells: human placenta; conditions: human placenta fibronectin receptor, fibronectin-coated plates; read-out: ELISA IC50 Fibronectin FnR
# Protocol: Fibronectin receptor is purified according to the procedures of Pytela et al., (Methods Enzymol. 144:475 […]). Briefly, fibronectin receptor is purified employing an Arg-Gly-Asp affinity chromatography from (100 mM) octylglucoside (OG) extracted human placenta. The OG extract is filtered over Sepharose 6B GRGDSPK column. The column is washed three times with three column volumes of Tris-buffered saline (TBS) TBS, 1 mM CaCl2, and 25 mM OG. The receptor is eluted with TBS, 20 mM EDTA, and 25 mM Octyl thioglucoside, and is stored in 1 mM CaCl2, 1 mM MgCl2, at -80° C.
# Microtiter plates are coated with 110 μl human fibronectin (at 2 μg/ml) in TBS. Plates are washed three times with TBS containing 0.05% Tween 20. Test inhibitors are then added after washing in 10 microliter aliquots. The fibronectin receptor is added in 2-fold serial dilutions with TBS containing 20 mM octyl glucoside and 2 mM MnCl2. Plates are incubated three hours at room temperature, and washed with 200 μl TBS-Tween 20 buffer. 100 μl of affinity-purffied rabbit anti-human fibronectin receptor antibody is added to the wells and the plates are incubated two hours, washed twice with TBS-Tween and once with distilled water. Affinity-purified goat anti-rabbit IgG conjugated to horseradish peroxidase (100 μl) is added to each well followed by incubation for 60 minutes at room temperature. Plates are again washed twice with TBS-Tween and distilled water. 100 μl of substrate mixture (10 mg o-phenylenediamine in 25 ml 0.1M citrate-phosphate buffer, pH 5.0 6 μ30% H2 O2) is added to the plates and allowed to develop. The development process is stopped by adding 50 μl of 4N H2 SO4 to each well and read at […].
# Chain of Fibronectin Receptor (P08648 42-894 limits assumed): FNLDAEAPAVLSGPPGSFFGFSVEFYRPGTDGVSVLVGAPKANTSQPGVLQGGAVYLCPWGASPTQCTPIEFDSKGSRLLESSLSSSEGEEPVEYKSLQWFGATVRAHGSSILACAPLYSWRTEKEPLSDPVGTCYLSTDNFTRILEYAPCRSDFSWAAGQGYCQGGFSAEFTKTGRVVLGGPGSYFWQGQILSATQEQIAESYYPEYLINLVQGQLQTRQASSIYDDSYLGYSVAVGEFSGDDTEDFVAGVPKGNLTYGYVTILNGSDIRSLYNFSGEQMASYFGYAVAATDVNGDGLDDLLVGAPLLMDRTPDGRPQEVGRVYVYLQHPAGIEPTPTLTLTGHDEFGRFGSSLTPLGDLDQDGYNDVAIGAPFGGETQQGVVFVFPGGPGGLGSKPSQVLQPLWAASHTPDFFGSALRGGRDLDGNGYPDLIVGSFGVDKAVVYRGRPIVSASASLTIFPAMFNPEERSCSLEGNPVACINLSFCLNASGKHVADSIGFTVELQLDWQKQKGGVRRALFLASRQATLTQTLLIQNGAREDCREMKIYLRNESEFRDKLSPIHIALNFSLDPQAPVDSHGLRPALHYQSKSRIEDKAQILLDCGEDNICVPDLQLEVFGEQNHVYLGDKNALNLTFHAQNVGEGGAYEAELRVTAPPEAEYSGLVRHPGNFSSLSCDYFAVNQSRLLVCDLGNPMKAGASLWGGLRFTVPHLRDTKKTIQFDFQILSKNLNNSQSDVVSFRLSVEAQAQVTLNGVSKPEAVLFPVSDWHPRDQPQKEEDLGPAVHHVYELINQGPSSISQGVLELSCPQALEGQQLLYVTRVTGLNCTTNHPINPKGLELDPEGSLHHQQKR
# Chain of Fibronectin Receptor (P08648 895-1049 partner limits assumed): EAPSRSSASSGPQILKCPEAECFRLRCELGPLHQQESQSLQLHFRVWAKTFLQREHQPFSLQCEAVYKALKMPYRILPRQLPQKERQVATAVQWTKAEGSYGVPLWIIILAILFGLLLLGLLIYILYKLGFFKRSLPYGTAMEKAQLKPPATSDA
# Chain of Fibronectin Receptor (P05556 21-798): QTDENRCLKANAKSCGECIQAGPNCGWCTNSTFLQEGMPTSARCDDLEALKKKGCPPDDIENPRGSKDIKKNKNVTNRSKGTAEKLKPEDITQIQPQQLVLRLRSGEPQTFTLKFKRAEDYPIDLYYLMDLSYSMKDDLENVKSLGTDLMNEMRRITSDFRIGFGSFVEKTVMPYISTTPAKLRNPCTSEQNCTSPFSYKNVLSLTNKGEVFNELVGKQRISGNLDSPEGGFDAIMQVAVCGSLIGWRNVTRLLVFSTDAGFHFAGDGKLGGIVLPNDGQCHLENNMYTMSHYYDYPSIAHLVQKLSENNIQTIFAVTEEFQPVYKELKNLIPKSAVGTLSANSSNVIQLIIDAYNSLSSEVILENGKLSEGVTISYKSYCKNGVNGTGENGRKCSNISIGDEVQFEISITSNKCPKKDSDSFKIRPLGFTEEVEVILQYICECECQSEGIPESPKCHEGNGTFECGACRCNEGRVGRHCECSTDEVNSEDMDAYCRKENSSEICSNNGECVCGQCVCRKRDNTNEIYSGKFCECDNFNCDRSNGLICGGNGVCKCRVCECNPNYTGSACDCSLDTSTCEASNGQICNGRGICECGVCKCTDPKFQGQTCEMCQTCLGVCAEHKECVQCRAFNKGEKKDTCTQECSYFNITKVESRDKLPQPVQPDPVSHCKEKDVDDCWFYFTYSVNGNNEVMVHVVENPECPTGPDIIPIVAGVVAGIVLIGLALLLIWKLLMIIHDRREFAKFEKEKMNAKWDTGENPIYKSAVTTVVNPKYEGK
# Chain of GP IIb IIIa (P08514 32-887 limits assumed): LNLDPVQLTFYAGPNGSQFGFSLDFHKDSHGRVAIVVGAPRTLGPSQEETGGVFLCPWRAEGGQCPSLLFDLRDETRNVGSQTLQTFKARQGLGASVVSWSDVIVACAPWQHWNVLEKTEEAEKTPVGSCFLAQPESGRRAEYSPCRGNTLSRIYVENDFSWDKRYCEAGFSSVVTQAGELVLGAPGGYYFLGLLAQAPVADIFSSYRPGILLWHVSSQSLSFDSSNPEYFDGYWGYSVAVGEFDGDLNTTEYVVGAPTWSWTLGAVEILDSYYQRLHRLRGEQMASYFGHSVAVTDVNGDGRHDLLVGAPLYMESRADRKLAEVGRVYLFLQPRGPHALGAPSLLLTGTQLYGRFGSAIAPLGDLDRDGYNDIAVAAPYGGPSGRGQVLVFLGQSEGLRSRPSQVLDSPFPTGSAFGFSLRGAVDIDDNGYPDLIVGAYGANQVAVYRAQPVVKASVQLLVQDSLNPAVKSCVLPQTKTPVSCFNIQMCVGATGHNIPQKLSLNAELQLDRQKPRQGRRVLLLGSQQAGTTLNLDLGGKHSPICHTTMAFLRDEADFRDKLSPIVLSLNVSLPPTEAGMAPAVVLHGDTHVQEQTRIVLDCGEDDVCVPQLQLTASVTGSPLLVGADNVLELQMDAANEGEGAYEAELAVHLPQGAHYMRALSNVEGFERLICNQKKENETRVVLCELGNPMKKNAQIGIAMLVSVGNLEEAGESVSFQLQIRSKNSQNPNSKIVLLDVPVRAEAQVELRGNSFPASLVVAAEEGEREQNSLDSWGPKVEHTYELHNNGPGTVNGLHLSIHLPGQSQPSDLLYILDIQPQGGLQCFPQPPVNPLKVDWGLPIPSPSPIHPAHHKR
# Chain of GP IIb IIIa (P08514 891-1039 partner limits assumed): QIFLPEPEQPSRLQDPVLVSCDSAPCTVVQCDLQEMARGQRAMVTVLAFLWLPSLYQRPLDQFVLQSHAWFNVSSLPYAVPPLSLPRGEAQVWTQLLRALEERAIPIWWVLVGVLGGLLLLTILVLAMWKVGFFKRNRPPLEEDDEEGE
# Chain of GP IIb IIIa (P05106 27-788): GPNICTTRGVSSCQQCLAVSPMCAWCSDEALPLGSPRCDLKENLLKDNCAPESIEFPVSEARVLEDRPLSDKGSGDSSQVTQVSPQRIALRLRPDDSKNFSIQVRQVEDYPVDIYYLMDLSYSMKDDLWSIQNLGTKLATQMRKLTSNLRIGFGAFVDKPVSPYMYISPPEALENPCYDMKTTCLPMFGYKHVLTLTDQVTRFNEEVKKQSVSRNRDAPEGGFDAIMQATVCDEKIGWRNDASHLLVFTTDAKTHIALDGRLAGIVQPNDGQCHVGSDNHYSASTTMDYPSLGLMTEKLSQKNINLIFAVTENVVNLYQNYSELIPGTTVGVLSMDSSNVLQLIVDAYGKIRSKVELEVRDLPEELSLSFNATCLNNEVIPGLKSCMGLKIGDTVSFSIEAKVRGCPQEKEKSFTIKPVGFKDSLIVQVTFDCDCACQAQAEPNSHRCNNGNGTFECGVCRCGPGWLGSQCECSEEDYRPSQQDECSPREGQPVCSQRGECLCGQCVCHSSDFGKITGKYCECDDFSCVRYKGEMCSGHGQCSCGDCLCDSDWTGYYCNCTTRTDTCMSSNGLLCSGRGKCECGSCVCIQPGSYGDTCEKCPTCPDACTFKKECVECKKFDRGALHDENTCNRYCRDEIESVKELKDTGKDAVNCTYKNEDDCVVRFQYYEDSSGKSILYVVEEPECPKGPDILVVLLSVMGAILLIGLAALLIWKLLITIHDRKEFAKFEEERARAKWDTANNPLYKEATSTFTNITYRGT
SMILES,Rabbit BT Ratio [1],IC50 (GP IIb IIIa) [nM],IC50 (Fibronectin Receptor) [nM],increase in cutaneous bleeding time ([1]; dosed to 100% inhibition of platelet aggregation) [times],"cutaneous bleeding time, result in words [1]"
"N=C(N)NCCC[C@@H]1NC(=O)[C@@H](Cc2ccc(O)cc2)NC(=O)C(CCCCN)SC[C@@H](C(=O)O)NC(=O)[C@H](CC(=O)O)NC(=O)CNC1=O (single isomer, unassigned) [9/10, cyclo-S-2-L-(6-aminocaproyl)-Lys--dTyr--Arg--Gly--Asp--Cys--OH]",8.17,5.3,2,–,–
"N=C(N)NCCC[C@@H]1NC(=O)[C@@H](Cc2ccc(O)cc2)NC(=O)C(CCCCN)SC[C@@H](C(=O)O)NC(=O)[C@H](CC(=O)O)NC(=O)CNC1=O (single isomer, unassigned) [9/11, cyclo-S-2-L-(6-aminocaproyl)-Lys--dTyr--Arg--Gly--Asp--Cys--OH]",–,14.3,160,–,–
"N=C(N)NCCC[C@H](NC(=O)[C@@H]1CSCC(=O)N[C@H](Cc2ccc(O)cc2)C(=O)N[C@@H](CCCNC(=N)N)C(=O)NCC(=O)N[C@@H](CC(=O)O)C(=O)N1)C(N)=O [7/1, cyclo-S-acetyl-dTyr--Arg--Gly--Asp--Cys--Arg--NH2] ({CH2CO}-[dY]RGDCR-NH2; thioether N-5)",1.7,10,57,1.17,–
"N=C(N)NCCC[C@@H]1NC(=O)[C@@H](Cc2ccc(O)cc2)NC(=O)CSC[C@@H](C(=O)N[C@H](CCCNC(=N)N)C(N)=O)NC(=O)[C@H](CC(=O)O)NC(=O)CNC1=O [7/2, cyclo-S-acetyl-dTyr--Arg--Gly--Asp--Cys--dArg--NH2] ({CH2CO}-[dY]RGDC[dR]-NH2; thioether N-5)",–,13.5,42,–,–
"N=C(N)NCCC[C@@H]1NC(=O)[C@@H](Cc2ccc(O)cc2)NC(=O)CSC[C@@H](C(=O)N[C@H](CCCCN)C(N)=O)NC(=O)[C@H](CC(=O)O)NC(=O)CNC1=O [7/4, cyclo-S-acetyl-dTyr--Arg--Gly--Asp--Cys--dLys--NH2] ({CH2CO}-[dY]RGDC[dK]-NH2; thioether N-5)",–,8.3,66,–,–
"N=C(N)NCCC[C@@H]1NC(=O)[C@@H](Cc2ccc(O)cc2)NC(=O)CSC[C@@H](C(=O)N[C@H](CCCN)C(N)=O)NC(=O)[C@H](CC(=O)O)NC(=O)CNC1=O [7/6, cyclo-S-acetyl-dTyr--Arg--Gly--Asp--Cys--dOrn--NH2] ({CH2CO}-[dY]RGDC[dOrn]-NH2; thioether N-5)",–,10.5,161,–,–
"N=C(N)NCCC[C@@H]1NC(=O)[C@@H](Cc2ccc(O)cc2)NC(=O)CSC[C@@H](C(=O)N[C@@H](CCC(N)=O)C(N)=O)NC(=O)[C@H](CC(=O)O)NC(=O)CNC1=O [7/27, cyclo-S-acetyl-dTyr--Arg--Gly--Asp--Cys--Gln--NH2] ({CH2CO}-[dY]RGDCQ-NH2; thioether N-5)",0.77 and 0.93,3.1,–,–,did not increase cutaneous blood time
"N=C(N)NCCC[C@@H]1NC(=O)[C@@H](Cc2ccc(O)cc2)NC(=O)CSC[C@@H](C(=O)NCCCCC(=O)O)NC(=O)[C@H](CC(=O)O)NC(=O)CNC1=O [7/28, cyclo-S-(1-5)-dTyr--Arg--Gly--Asp--Cys--X (X = aminovaleric acid)] ({CH2CO}-[dY]RGDC[Ava]-OH; thioether N-5)",–,70,–,–,–
"N=C(N)NCCC[C@@H]1NC(=O)[C@@H](Cc2ccc(O)cc2)NC(=O)CSC[C@@H](C(=O)NCCCCN)NC(=O)[C@H](CC(=O)O)NC(=O)CNC1=O [8/12, cyclo-S-acetyl-dTyr--Arg--Gly--Asp--Cys--NH--X (X = butylamine)] ({CH2CO}-[dY]RGDC-{NH(CH2)4NH2}; thioether N-5)",0.94,10,–,–,–
"N=C(N)NCCC[C@H](NC(=O)[C@@H]1CCCC(=O)N[C@H](Cc2ccc(O)cc2)C(=O)N[C@@H](CCCNC(=N)N)C(=O)NCC(=O)N[C@@H](CC(=O)O)C(=O)N1)C(N)=O [10/19, cyclo(1-5)dTyr--Arg--Gly--Asp--L-α-aminoadipic acid-Arg--NH2] ([dY]RGD[Aad]R-NH2; lactam N-5)",–,8.9,745,–,–
